Laboratory results: ChEMBL document CHEMBL1159223, “4-Dehydroecdysterone, a new ecdysteroid from the zoanthid Parazoanthus sp” (J Nat Prod, 1995)
Active and inactive are the calls of the source. No cut-off for these calls is given here.

The compounds below were run on Candida albicans (assay: Antifungal activity against Candida albicans).
Assay type: functional, organism-based
In the case of `CC(C)(O)CC[C@@H](O)[C@](C)(O)[C@H]1CC[C@@]2(O)C3=CC(=O)[C@@H]4C[C@@H](O)[C@@H](O)C[C@]4(C)[C@H]3CC[C@]12C`, the Activity is reported as “inactive”.
`CNc1nc2c(C)ccc3nc(N(C)C)[nH]c3c-2n1` was tested, and the Activity was “inactive”.
With `CC(C)(O)CC[C@H](O)[C@](C)(O)[C@H]1CC[C@@]2(O)C3=CC(=O)C4=C[C@@H](O)[C@@H](O)C[C@]4(C)[C@H]3CC[C@]12C` the Activity was “inactive”.
For `CC(C)CC[C@H](O)[C@](C)(O)[C@H]1CC[C@@]2(O)C3=CC(=O)[C@@H]4C[C@@H](O)[C@@H](O)C[C@]4(C)[C@H]3[C@H](O)C[C@]12C`, the Activity was “inactive”.
